Test results as given in publication PMC6631223, “Chain-Branched Polyhydroxylated Octahydro-1H-Indoles as Potential Leads against Lysosomal Storage Diseases” (Pharmaceuticals, 2019).
Marks after values point to notes of the source that are not given here.

Tests used:
Type in all cases: biochemical
α-Glucosidase (yeast) = target: T1, α-Glucosidase (yeast) (Saccharomyces cerevisiae, UniProt P53341); test: Glycosidase inhibition: α-glucosidase (yeast); conditions: α-glucosidase, yeast; 1000 μM
T1 construct: purchased Sigma-Aldrich Co
Source text: (§1) The enzymes α-glucosidase (from yeast, rice), β-glucosidase (from almonds, bovine liver), α-galactosidase (from coffee beans), β-galactosidase (from bovine liver), α-mannosidase (from jack beans), β-mannosidase (from snails), α-L-fucosidase (from bovine kidney), α-L-rhamnosidase (from Penicillium decumbens), β-glucuronidases (from Escherichia coli), α,α-trehalase (from porcine kidney), amyloglucosidase (from Aspergillus niger), p-nitrophenyl glycosides, and various disaccharides were purchased from Sigma-Aldrich Co. Brush border membranes were prepared from the rat small intestine according to the method of Kessler et al., and were assayed at pH 6.8 for rat intestinal maltase using maltose. For rat intestinal glucosidases and porcine kidney trehalase activities, the reaction mixture (0.2 mL) contained 25 mM substrate and the appropriate amount of enzyme, and the incubations were performed for 10 min at 37 °C. The reaction was stopped by heating at 100 °C for 3 min. After centrifugation (600 g; 10 min), 0.035 mL of the resulting reaction mixture were added to 2.1 mL of the Glucose CII-test Wako (Wako Pure Chemical Ind., Osaka, Japan). The absorbance at 505 nm was measured to determine the amount of the released D-glucose. Other glycosidase activities were determined using an appropriate p-nitrophenyl glycoside as substrate at the optimum pH of each enzyme. The reaction mixture (0.2 mL) contained 2 mM of the substrate and the appropriate amount of enzyme. The reaction was stopped by adding 0.4 mL of 400 mM Na2CO3. The released p-nitrophenol was measured spectrometrically at 400 nm.

α-Glucosidase (rice) = target: T2, α-Glucosidase (rice) (Oryza sativa subsp. japonica, UniProt Q653V7); test: Glycosidase inhibition: α-glucosidase (rice); conditions: read-out: inhibition % at 1000 μM
T2 construct: purchased Sigma-Aldrich Co
Source text: as §1

Rat intestinal maltase = test: Glycosidase inhibition: rat intestinal maltase; conditions: maltose, pH 6.8, 1000 μM
Source text: as §1

[1] = target: T3, β-Galactosidase (bovine liver) (Bos taurus, UniProt Q58D55); test: Glycosidase inhibition: β-galactosidase (bovine liver)
T3 sequence (Q58D55 28-653): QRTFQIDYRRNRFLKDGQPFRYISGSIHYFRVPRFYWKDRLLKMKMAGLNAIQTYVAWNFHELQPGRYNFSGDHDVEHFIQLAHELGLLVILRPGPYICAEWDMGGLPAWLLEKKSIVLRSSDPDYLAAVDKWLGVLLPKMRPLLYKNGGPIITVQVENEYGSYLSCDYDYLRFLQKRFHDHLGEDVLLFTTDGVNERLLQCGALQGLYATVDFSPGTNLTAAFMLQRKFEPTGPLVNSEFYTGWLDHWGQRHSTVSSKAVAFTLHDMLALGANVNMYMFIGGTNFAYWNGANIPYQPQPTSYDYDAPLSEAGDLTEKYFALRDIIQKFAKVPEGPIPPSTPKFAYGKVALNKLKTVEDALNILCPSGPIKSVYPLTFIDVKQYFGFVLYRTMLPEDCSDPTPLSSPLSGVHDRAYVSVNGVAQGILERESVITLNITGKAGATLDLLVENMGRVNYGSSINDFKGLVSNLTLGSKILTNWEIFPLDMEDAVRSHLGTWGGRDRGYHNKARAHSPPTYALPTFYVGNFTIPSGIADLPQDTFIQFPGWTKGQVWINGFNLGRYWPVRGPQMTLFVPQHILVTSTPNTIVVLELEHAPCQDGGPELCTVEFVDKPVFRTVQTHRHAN
Source text: as §1, with “After centrifugation (600 g; 10 min), 0.035 mL of the resulting reaction mixture were added to 2.1 mL of the Glucose CII-test Wako (Wako Pure Chemical Ind., Osaka, Japan).” left out, “The reaction mixture (0.2 mL) contained 2 mM of the substrate and the appropriate amount of enzyme. The reaction was stopped by adding 0.4 mL of 400 mM Na2CO3.” left out

[2] = target: T4, Lactase (β-Galactosidase) (Rattus norvegicus, UniProt Q02401); test: Glycosidase inhibition: lactase; conditions: read-out: inhibition % at 1000 μM
T4 construct: Brush border membranes were prepared from the rat small intestine; from tissue; host or cells: rat small intestine brush border membranes (inferred)
T4 sequence (Q02401 868-1928): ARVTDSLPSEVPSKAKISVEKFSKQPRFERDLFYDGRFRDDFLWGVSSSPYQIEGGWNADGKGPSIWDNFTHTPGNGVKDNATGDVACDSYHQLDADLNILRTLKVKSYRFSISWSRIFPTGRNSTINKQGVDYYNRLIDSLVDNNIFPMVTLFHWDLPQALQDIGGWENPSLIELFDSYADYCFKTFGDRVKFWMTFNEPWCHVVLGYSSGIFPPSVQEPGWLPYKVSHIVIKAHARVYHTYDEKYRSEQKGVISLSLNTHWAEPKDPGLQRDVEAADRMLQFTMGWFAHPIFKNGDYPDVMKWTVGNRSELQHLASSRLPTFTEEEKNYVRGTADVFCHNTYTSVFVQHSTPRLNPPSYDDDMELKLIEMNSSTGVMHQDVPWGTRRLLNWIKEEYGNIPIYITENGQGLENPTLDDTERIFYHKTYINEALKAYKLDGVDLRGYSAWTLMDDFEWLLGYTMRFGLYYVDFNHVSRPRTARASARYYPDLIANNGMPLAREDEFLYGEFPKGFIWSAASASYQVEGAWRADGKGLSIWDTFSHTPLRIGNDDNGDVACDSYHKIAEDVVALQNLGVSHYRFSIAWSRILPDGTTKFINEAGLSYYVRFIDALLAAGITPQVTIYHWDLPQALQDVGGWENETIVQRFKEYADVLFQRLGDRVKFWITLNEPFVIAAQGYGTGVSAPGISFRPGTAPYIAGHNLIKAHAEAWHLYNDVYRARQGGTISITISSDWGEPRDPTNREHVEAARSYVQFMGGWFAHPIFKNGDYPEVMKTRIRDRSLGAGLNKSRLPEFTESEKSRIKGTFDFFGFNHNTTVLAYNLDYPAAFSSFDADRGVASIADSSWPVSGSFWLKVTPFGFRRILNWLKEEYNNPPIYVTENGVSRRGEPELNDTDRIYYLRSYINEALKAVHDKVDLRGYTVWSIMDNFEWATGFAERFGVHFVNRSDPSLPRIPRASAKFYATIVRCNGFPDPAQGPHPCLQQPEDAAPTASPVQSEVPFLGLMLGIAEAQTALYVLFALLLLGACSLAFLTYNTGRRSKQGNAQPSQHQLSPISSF
Source text: as §1

α-L-Rhamnosidase = α-L-Rhamnosidase (Penicillium decumbens, UniProt S7ZS15); test: Glycosidase inhibition: α-L-rhamnosidase (Penicillium decumbens)
Source text: as §1, with “After centrifugation (600 g; 10 min), 0.035 mL of the resulting reaction mixture were added to 2.1 mL of the Glucose CII-test Wako (Wako Pure Chemical Ind., Osaka, Japan).” left out, “The reaction mixture (0.2 mL) contained 2 mM of the substrate and the appropriate amount of enzyme. The reaction was stopped by adding 0.4 mL of 400 mM Na2CO3.” left out

Chain of α-L-Rhamnosidase (S7ZS15 entry or part of it): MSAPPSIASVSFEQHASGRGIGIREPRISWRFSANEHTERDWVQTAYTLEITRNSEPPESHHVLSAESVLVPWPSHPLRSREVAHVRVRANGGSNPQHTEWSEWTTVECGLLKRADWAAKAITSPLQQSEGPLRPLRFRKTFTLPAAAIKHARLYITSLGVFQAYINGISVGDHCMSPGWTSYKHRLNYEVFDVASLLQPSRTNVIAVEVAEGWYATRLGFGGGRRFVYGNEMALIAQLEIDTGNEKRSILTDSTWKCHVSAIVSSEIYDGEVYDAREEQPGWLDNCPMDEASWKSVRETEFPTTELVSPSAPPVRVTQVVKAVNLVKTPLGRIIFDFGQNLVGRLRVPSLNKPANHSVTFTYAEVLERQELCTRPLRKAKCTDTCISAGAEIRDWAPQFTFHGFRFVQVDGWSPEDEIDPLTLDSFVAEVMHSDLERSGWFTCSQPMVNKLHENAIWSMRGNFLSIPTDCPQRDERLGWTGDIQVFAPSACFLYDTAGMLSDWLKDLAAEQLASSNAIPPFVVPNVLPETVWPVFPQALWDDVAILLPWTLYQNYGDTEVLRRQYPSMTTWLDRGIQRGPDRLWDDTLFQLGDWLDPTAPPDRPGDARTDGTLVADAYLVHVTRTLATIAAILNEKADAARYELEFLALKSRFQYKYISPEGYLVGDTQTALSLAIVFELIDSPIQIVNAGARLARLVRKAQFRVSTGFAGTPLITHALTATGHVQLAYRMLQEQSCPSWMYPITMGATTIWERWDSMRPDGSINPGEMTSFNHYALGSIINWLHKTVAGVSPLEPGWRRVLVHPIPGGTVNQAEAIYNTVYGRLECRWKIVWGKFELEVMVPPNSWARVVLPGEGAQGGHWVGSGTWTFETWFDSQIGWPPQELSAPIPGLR
T2 sequence (Q653V7 34-885): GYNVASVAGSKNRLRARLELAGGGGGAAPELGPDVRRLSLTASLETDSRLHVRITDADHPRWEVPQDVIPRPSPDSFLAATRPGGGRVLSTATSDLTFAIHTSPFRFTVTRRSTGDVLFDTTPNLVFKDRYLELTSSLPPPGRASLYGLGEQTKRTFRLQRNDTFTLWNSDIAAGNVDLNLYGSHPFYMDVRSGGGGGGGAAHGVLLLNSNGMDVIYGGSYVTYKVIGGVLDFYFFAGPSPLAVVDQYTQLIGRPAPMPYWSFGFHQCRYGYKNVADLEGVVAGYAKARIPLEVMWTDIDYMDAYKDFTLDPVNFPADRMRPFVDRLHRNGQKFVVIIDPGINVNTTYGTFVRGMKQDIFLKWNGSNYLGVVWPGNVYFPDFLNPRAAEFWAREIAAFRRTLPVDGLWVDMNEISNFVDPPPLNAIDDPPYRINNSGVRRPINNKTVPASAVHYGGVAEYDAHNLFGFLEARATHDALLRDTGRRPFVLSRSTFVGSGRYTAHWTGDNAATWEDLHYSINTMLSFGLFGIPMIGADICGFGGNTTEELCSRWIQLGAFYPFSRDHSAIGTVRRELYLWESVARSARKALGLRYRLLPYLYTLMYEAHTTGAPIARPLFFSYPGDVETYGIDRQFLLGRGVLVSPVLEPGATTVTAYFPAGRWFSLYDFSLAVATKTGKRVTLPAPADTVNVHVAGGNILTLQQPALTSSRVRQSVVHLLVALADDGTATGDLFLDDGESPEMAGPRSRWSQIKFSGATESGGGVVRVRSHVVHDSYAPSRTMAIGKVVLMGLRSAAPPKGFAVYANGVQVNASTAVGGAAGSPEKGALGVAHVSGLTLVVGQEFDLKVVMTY
T1 sequence (P53341 whole entry): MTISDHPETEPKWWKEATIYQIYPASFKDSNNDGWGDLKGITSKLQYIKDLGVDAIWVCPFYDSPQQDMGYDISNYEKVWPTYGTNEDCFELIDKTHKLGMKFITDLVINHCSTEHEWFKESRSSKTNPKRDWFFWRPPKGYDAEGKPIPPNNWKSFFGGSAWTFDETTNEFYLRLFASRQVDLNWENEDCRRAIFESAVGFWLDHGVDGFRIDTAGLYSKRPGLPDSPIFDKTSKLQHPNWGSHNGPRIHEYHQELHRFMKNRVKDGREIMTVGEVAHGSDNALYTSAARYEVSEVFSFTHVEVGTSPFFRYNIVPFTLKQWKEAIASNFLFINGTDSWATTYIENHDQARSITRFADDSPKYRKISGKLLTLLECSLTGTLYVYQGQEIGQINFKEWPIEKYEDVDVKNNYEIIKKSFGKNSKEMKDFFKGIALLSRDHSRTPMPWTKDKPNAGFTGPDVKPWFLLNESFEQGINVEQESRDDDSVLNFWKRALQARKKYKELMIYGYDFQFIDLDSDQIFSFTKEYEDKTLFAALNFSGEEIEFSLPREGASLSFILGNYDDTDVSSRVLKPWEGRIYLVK

In the case of CC[C@@H]1CN[C@H]2C[C@@H](O)[C@H](O)[C@@H](O)[C@H]12 [Compound 10, (3S,3aR,4S,5S,6R,7aS)-3-Ethyloctahydro-1H-indole-4,5,6-triol], the inhibition at 1000 µM (α-Glucosidase (yeast)) is reported as 16%, the inhibition at 1000 µM (α-Glucosidase (rice)) is reported as 0% and the “inhibition % at 1000 μM” value (Rat intestinal maltase) is reported as 4.1% ^a. For the same molecule, the inhibition at 1000 µM [1] was < 50%, the inhibition at 1000 µM [2] was 0.6% and the inhibition at 1000 µM (α-L-Rhamnosidase) was 0%.

In the case of CC[C@H]1CN[C@H]2C[C@@H](O)[C@H](O)[C@@H](O)[C@H]12 [Compound 13, (3R,3aR,4S,5S,6R,7aS)-3-ethyloctahydro-1H-indole-4,5,6-triol], the inhibition at 1000 µM (α-Glucosidase (yeast)) is reported as 19.5%, the inhibition at 1000 µM (α-Glucosidase (rice)) is reported as 0% and the “inhibition % at 1000 μM” value (Rat intestinal maltase) is reported as 0% ^a. The inhibition at 1000 µM [1] was < 50%, the inhibition at 1000 µM [2] was 7.4% and the inhibition at 1000 µM (α-L-Rhamnosidase) was 0%.
